The values below come from patent US8835479B2, “Agent for fungal dermatitis” (Nihon Nohyaku Co., Ltd., priority 2007, dated 2014).

The test system of this assay is Malassezia restricta clinical isolate (R-4). As to the kind of experiment: Treatment effect on guinea pig seborrheic dermatitis model. In kind it is in vivo. The settings on record: 1% luliconazole cream, 0.1 mL/inoculation site/day for 3 days, compared with 2% ketoconazole cream. On the procedure: Efficacy Evaluation Test 2. Treatment Effect on Guinea Pig Seborrheic Dermatitis Model
A guinea pig seborrheic dermatitis model was prepared using Malassezia restricta (Malassezia (M.) restricta) as a pathogenic fungus, and a skin symptom improving effect and a mycological treatment effect of 1% luliconazole cream were evaluated. As a comparative drug, 2% ketoconazole cream was used.
Luliconazole was prepared by the Applicant, and as 2% ketoconazole, a commercially available preparation was purchased and used.
As Malassezia restricta, a clinical isolate (R-4) isolated and identified by Teikyo University Institute of Medical Mycology was used. 2.5 mL of a modified Leeming (Leeming and Notman) liquid medium (m-LN. containing olive oil) was added per 1 g wet weight of the precultured strain for suspending therein to give an inoculum. […]
The hair on the back of the animal was shaved, and two inoculation sites (diameter 2 cm) were placed on either side of the back skin symmetrically. […] The skin symptoms were observed through the experiment from the inoculation starting day to the day of sacrifice and recorded by using the score. […] The skin section was successively observed from one end to the other end and the fungal content was evaluated by the criteria shown in the Table. The detection frequency of fungus in each section was determined. […]

SMILES strings stand for the structures.

As for `N#C/C(=C1/SC[C@@H](c2ccc(Cl)cc2Cl)S1)n1ccnc1` [Luliconazole, (−)-(E)-[(4R)-(2,4-dichlorophenyl)-1,3-dithioran-2-ylidene](1H-imidazol-1-yl)acetonitrile], the mycological treatment effect result (PAS-stained skin sections, FIG. 2) is “showed mycological cure”. Under “FIG. 1”, the “skin symptom improving effect” value is “improved skin symptom”.
